The text below walks through data of patent US8450313B2, “2,3-diaryl- or heteroaryl-substituted 1,1,1-trifluoro-2-hydroxypropyl compounds” (Hoffmann-La Roche Inc., priority 2009, dated 2013).

The assay has as its target T1, full length human recombinant glucocorticoid receptor (Homo sapiens, UniProt P04150).
T1 construct: It contains some partially purified full length human recombinant glucocorticoid receptor; purchased Panvera/Invitrogen PV4302
T1 sequence (P04150 1-777): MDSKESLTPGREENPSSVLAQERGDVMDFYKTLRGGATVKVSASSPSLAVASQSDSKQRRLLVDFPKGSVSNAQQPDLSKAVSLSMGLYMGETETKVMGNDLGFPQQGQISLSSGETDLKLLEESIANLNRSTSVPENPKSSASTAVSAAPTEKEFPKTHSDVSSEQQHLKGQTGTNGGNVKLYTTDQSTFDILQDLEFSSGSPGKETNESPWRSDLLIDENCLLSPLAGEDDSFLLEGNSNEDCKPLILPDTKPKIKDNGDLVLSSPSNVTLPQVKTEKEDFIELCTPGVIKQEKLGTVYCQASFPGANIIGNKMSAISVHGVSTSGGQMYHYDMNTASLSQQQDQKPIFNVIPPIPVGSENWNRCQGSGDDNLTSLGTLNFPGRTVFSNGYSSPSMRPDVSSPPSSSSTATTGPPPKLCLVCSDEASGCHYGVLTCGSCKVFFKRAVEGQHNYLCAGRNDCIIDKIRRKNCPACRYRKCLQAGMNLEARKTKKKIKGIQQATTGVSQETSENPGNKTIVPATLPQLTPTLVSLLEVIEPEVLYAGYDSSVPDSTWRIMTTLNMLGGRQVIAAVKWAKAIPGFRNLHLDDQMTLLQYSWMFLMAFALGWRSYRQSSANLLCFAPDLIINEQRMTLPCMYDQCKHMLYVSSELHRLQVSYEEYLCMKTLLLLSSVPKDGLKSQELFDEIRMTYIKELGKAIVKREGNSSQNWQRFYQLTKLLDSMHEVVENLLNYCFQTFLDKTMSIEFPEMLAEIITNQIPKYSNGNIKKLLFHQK
Description: Glucocorticoid Receptor Binding Assay (Glucocorticoid Receptor Competitor Assay far red kit, fluorescence polarization). Particulars: competition with fluorescent GR ligand Fluormone GS Far Red, 3 hours at 22° C., pH 7.4; Ki calculated from IC50 by Cheng-Prusoff. Summed up:
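Compounds in serial dilution (from intermediate 4.2% DMSO stock) displace Fluormone GS Far Red from full-length human recombinant GR with stabilizing peptide, pH 7.4, incubated 3 hours at 22° C dark. Polarized fluorescence (610–660 nm) gives IC50 via sigmoidal fit, converted to Ki by Cheng-Prusoff.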

Consider `C[C@H](c1ccc(Oc2ccc(C(=O)O)c(F)c2)cc1Cl)[C@@](O)(c1ccc2c(c1)OCC(=O)N2C)C(F)(F)F` (stereo in doubt) [Example 166, 4-{3-Chloro-4-[3,3,3-trifluoro-2-hydroxy-1-methyl-2-(4-methyl-3-oxo-3,4-dihydro-2H-benzo[1,4]oxazin-7-yl)-propyl]phenoxy}-2-fluoro-benzoic acid], for which the Ki is 2.7 nM. With `C[C@@H](c1ccc(-c2cc(C(=O)O)ccc2F)cc1Cl)[C@](O)(c1ccc2c(c1)N(C)C(=O)CO2)C(F)(F)F` (relative stereo) [Example 38, 3′-Chloro-6-fluoro-4′-[3,3,3-trifluoro-2-hydroxy-1-methyl-2-(4-methyl-3-oxo-3,4-dihydro-2H-benzo[1,4]oxazin-6-yl)-propyl]-biphenyl-3-carboxylic acid] the figure was 1.8 nM; with `C[C@H](c1ccc(Oc2ccc(C(=O)O)nn2)cc1Cl)[C@@](O)(c1ccc2oc(=O)n(C)c2c1)C(F)(F)F` (relative stereo) [Example 201, 6-{3-Chloro-4-[3,3,3-trifluoro-2-hydroxy-1-methyl-2-(3-methyl-2-oxo-2,3-dihydro-benzooxazol-5-yl)-propyl]-phenoxy}-pyridazine-3-carboxylic acid], 3.9 nM; with `COC(=O)c1ccc(-c2ccc([C@H](C)[C@](O)(c3ccc4c(c3)N(C)C(=O)CO4)C(F)(F)F)c(Cl)c2)cc1OC` (relative stereo) [Example 35, 3′-Chloro-3-methoxy-4′-[3,3,3-trifluoro-2-hydroxy-1-methyl-2-(4-methyl-3-oxo-3,4-dihydro-2H-benzo[1,4]oxazin-6-yl)-propyl]-biphenyl-4-carboxylic acid methyl ester], 2.6 nM. `C[C@H](c1ccc(Oc2ccc(C(=O)O)cn2)cc1Cl)[C@@](O)(c1ccc2c(c1)N(C)C(=O)CO2)C(F)(F)F` (stereo in doubt) [Example 205, 6-{3-Chloro-4-[3,3,3-trifluoro-2-hydroxy-1-methyl-2-(4-methyl-3-oxo-3,4-dihydro-2H-benzo[1,4]oxazin-6-yl)-propyl]-phenoxy}-nicotinic acid]: the Ki is 2.5 nM.

`CCOC(=O)c1cccc(-c2ccc([C@@H](C)[C@@](O)(c3ccc4oc(=O)n(C)c4c3)C(F)(F)F)c(Cl)c2)n1` (relative stereo) [Example 188, 6-{3-Chloro-4-[3,3,3-trifluoro-2-hydroxy-1-methyl-2-(3-methyl-2-oxo-2,3-dihydro-benzooxazol-5-yl)-propyl]-phenyl}-pyridine-2-carboxylic acid ethyl ester]: the Ki was 2.2 nM. `C[C@H](c1ccc(Oc2ccc(C(=O)O)c(Cl)n2)cc1Cl)[C@@](O)(c1ccc2c(c1)n(C)c(=O)n2C)C(F)(F)F` (stereo in doubt) [Example 92, 2-Chloro-6-{3-chloro-4-[2-(1,3-dimethyl-2-oxo-2,3-dihydro-1H-benzoimidazol-5-yl)-3,3,3-trifluoro-2-hydroxy-1-methyl-propyl]-phenoxy}-nicotinic acid]: the inhibition constant (Ki) is 0.6 nM. Regarding `C[C@H](c1ccc(-c2cccc(C(=O)O)c2)cc1Cl)[C@@](O)(c1ccc2c(c1)n(C)c(=O)n2C)C(F)(F)F` (stereo in doubt) [Example 78, 3′-Chloro-4′-[2-(1,3-dimethyl-2-oxo-2,3-dihydro-1H-benzoimidazol-5-yl)-3,3,3-trifluoro-2-hydroxy-1-methyl-propyl]-biphenyl-3-carboxylic acid], the Ki was 1.3 nM.

With `COc1cc(-c2ccc([C@@H](C)[C@@](O)(c3ccc4c(c3)n(C)c(=O)n4C)C(F)(F)F)c(Cl)c2)ccc1C(=O)O` (stereo in doubt) [Example 80, 3′-Chloro-4′-[2-(1,3-dimethyl-2-oxo-2,3-dihydro-1H-benzoimidazol-5-yl)-3,3,3-trifluoro-2-hydroxy-1-methyl-propyl]-3-methoxy-biphenyl-4-carboxylic acid], the Ki was 13.6 nM. The same measure for `C[C@H](c1ccc(Oc2ncccn2)cc1Cl)[C@@](O)(c1ccc2oc(=O)n(C)c2c1)C(F)(F)F` (stereo in doubt) [Example 196, 5-{2-[2-Chloro-4-(pyrimidin-2-yloxy)-phenyl]-1-hydroxy-1-trifluoromethyl-propyl}-3-methyl-3H-benzooxazol-2-one]: 1.6 nM; for `CCOC(=O)COc1ccc(-c2ccc([C@@H](C)[C@@](O)(c3ccc4oc(=O)n(C)c4c3)C(F)(F)F)c(Cl)c2)cc1` (relative stereo) [Example 129, {3′-Chloro-4′-[3,3,3-trifluoro-2-hydroxy-1-methyl-2-(3-methyl-2-oxo-2,3-dihydro-benzooxazol-5-yl)-propyl]-biphenyl-4-yloxy}-acetic acid ethyl ester]: 1.1 nM; for `COc1cc(-c2ccc([C@H](C)[C@](O)(c3ccc4c(c3)N(C)C(=O)CO4)C(F)(F)F)c(Cl)c2)ccc1C(=O)O` (relative stereo) [Example 36, 3′-Chloro-3-methoxy-4′-[3,3,3-trifluoro-2-hydroxy-1-methyl-2-(4-methyl-3-oxo-3,4-dihydro-2H-benzo[1,4]oxazin-6-yl)-propyl]-biphenyl-4-carboxylic acid]: 6.5 nM.

Turning to `C[C@H](c1ccc(Oc2ccc(C(=O)O)cc2)cc1Cl)[C@@](O)(c1ccc2c(c1)N(C)C(=O)CO2)C(F)(F)F` (racemic) [Example 60, 4-{3-Chloro-4-[3,3,3-trifluoro-2-hydroxy-1-methyl-2-(4-methyl-3-oxo-3,4-dihydro-2H-benzo[1,4]oxazin-6-yl)-propyl]-phenoxy}-benzoic acid], the Ki was 2.3 nM.
